Assay results taken from ChEMBL document CHEMBL5316337, “Critical Role of Position 10 Residue in the Polymyxin Antimicrobial Activity” (J Med Chem, 2023).
Converted amounts (≈) assume the structure as drawn.

Experiments:
Type in all cases: functional
Acinetobacter baumannii [1] = experiment: Antibacterial activity against Carbapenem-resistant Acinetobacter baumannii FADD1-AB030 clinical isolates assessed as reduction in bacterial growth by broth microdilution method
Acinetobacter baumannii [2] = experiment: Antibacterial activity against polymyxin-susceptible Acinetobacter baumannii ATCC 19606 clinical isolates assessed as reduction in bacterial growth by broth microdilution method
Klebsiella pneumoniae [3] = experiment: Antibacterial activity against Carbapenem-resistant Klebsiella pneumoniae FADD1-KP022 clinical isolates assessed as reduction in bacterial growth by broth microdilution method
Pseudomonas aeruginosa [4] = experiment: Antibacterial activity against polymyxin-susceptible Pseudomonas aeruginosa FADD1-PA038 clinical isolates assessed as reduction in bacterial growth by broth microdilution method
Pseudomonas aeruginosa [5] = experiment: Antibacterial activity against Carbapenem-resistant Pseudomonas aeruginosa FADD1-PA001 clinical isolates assessed as reduction in bacterial growth by broth microdilution method
Enterobacter cloacae [6] = experiment: Antibacterial activity against polymyxin-susceptible Enterobacter cloacae FADD1-EC003 clinical isolates assessed as reduction in bacterial growth by broth microdilution method
Enterobacter cloacae [7] = experiment: Antibacterial activity against polymyxin-susceptible Enterobacter cloacae FADD1-EC006 clinical isolates assessed as reduction in bacterial growth by broth microdilution method
Pseudomonas aeruginosa [8] = experiment: Antibacterial activity against Carbapenem-resistant Pseudomonas aeruginosa FADD1-PA022 clinical isolates assessed as reduction in bacterial growth by broth microdilution method
Enterobacter cloacae [9] = experiment: Antibacterial activity against polymyxin-susceptible Enterobacter cloacae FADD1-EC001 clinical isolates assessed as reduction in bacterial growth by broth microdilution method
Acinetobacter baumannii [10] = experiment: Antibacterial activity against polymyxin-susceptible Acinetobacter baumannii ATCC 17978 clinical isolates assessed as reduction in bacterial growth by broth microdilution method
Pseudomonas aeruginosa [11] = experiment: Antibacterial activity against polymyxin-susceptible Pseudomonas aeruginosa ATCC 27853 clinical isolates assessed as reduction in bacterial growth by broth microdilution method
Klebsiella pneumoniae [12] = experiment: Antibacterial activity against Carbapenem-resistant Klebsiella pneumoniae BM1 clinical isolates assessed as reduction in bacterial growth by broth microdilution method
Klebsiella pneumoniae [13] = experiment: Antibacterial activity against Carbapenem-resistant Klebsiella pneumoniae FADD1-KP032 clinical isolates assessed as reduction in bacterial growth by broth microdilution method
Pseudomonas aeruginosa [14] = experiment: Antibacterial activity against polymyxin-susceptible Pseudomonas aeruginosa FADD1-PA025 clinical isolates assessed as reduction in bacterial growth by broth microdilution method
Klebsiella pneumoniae [15] = experiment: Antibacterial activity against Carbapenem-resistant Klebsiella pneumoniae FADD1-KP065 clinical isolates assessed as reduction in bacterial growth by broth microdilution method
Klebsiella pneumoniae [16] = experiment: Antibacterial activity against polymyxin-susceptible Klebsiella pneumoniae ATCC 700721 clinical isolates assessed as reduction in bacterial growth by broth microdilution method
Acinetobacter baumannii [17] = experiment: Antibacterial activity against Carbapenem-resistant Acinetobacter baumannii FADD1-AB034 clinical isolates assessed as reduction in bacterial growth by broth microdilution method

| Compound | MIC (Acinetobacter baumannii [1]) [µg/mL] | MIC (Acinetobacter baumannii [2]) [µg/mL] | MIC (Klebsiella pneumoniae [3]) [µg/mL] | MIC (Pseudomonas aeruginosa [4]) [µg/mL] | MIC (Pseudomonas aeruginosa [5]) [µg/mL] | MIC (Enterobacter cloacae [6]) [µg/mL] | MIC (Enterobacter cloacae [7]) [µg/mL] | MIC (Pseudomonas aeruginosa [8]) [µg/mL] | MIC (Enterobacter cloacae [9]) [µg/mL] | MIC (Acinetobacter baumannii [10]) [µg/mL] | MIC (Pseudomonas aeruginosa [11]) [µg/mL] | MIC (Klebsiella pneumoniae [12]) [µg/mL] | MIC (Klebsiella pneumoniae [13]) [µg/mL] | MIC (Pseudomonas aeruginosa [14]) [µg/mL] | MIC (Klebsiella pneumoniae [15]) [µg/mL] | MIC (Klebsiella pneumoniae [16]) [µg/mL] | MIC (Acinetobacter baumannii [17]) [µg/mL] |
| --- | --- | --- | --- | --- | --- | --- | --- | --- | --- | --- | --- | --- | --- | --- | --- | --- | --- |
| CC[C@H](C)CCCCC(=O)N[C@@H](CCN)C(=O)N[C@H](C(=O)N[C@@H](CCN)C(=O)N[C@H]1CCNC(=O)[C@H](CC(N)=O)NC(=O)[C@H](CCN)NC(=O)[C@H](CCN)NC(=O)[C@H](CC(C)C)NC(=O)[C@@H](Cc2ccccc2)NC(=O)[C@H](CCN)NC1=O)[C@@H](C)O | > 32 | > 32 | 8 (≈ 6.58 µM) | > 32 | > 32 | 32 (≈ 26.3 µM) | > 32 | 1 (≈ 0.822 µM) | > 32 | 16 (≈ 13.2 µM) | 32 (≈ 26.3 µM) | > 32 | > 32 | 4 (≈ 3.29 µM) | 8 (≈ 6.58 µM) | > 32 | > 32 |
| CC[C@H](C)CCCCC(=O)N[C@@H](CCN)C(=O)N[C@H](C(=O)N[C@@H](CCN)C(=O)N[C@H]1CCNC(=O)[C@H](C(C)N=[N+]=[N-])NC(=O)[C@H](CCN)NC(=O)[C@H](CCN)NC(=O)[C@H](CC(C)C)NC(=O)[C@@H](Cc2ccccc2)NC(=O)[C@H](CCN)NC1=O)[C@@H](C)O (stereo partly drawn) | 0.5 (≈ 0.407 µM) | 2 (≈ 1.63 µM) | 1 (≈ 0.814 µM) | 4 (≈ 3.26 µM) | 1 (≈ 0.814 µM) | 4 (≈ 3.26 µM) | 32 (≈ 26 µM) | 1 (≈ 0.814 µM) | 8 (≈ 6.51 µM) | 2 (≈ 1.63 µM) | 1 (≈ 0.814 µM) | 2 (≈ 1.63 µM) | 2 (≈ 1.63 µM) | 1 (≈ 0.814 µM) | 1 (≈ 0.814 µM) | 4 (≈ 3.26 µM) | 2 (≈ 1.63 µM) |
| CC[C@H](C)CCCCC(=O)N[C@@H](CCN)C(=O)N[C@H](C(=O)N[C@@H](CCN)C(=O)N[C@H]1CCNC(=O)[C@H](COC)NC(=O)[C@H](CCN)NC(=O)[C@H](CCN)NC(=O)[C@H](CC(C)C)NC(=O)[C@@H](Cc2ccccc2)NC(=O)[C@H](CCN)NC1=O)[C@@H](C)O | 1 (≈ 0.831 µM) | 8 (≈ 6.65 µM) | 0.25 (≈ 0.208 µM) | 8 (≈ 6.65 µM) | 2 (≈ 1.66 µM) | 8 (≈ 6.65 µM) | 32 (≈ 26.6 µM) | 1 (≈ 0.831 µM) | 8 (≈ 6.65 µM) | 2 (≈ 1.66 µM) | 0.5 (≈ 0.415 µM) | 1 (≈ 0.831 µM) | 2 (≈ 1.66 µM) | 2 (≈ 1.66 µM) | 1 (≈ 0.831 µM) | 4 (≈ 3.32 µM) | 4 (≈ 3.32 µM) |
| CC[C@H](C)CCCCC(=O)N[C@@H](CCN)C(=O)N[C@H](C(=O)N[C@@H](CCN)C(=O)N[C@H]1CCNC(=O)[C@@H]([C@H](C)O)NC(=O)[C@H](CCN)NC(=O)[C@H](CCN)NC(=O)[C@H](CC(C)C)NC(=O)[C@@H](Cc2ccccc2)NC(=O)[C@H](CCN)NC1=O)[C@@H](C)O | > 32 | > 32 | > 32 | > 32 | > 32 | > 32 | > 32 | 2 (≈ 1.66 µM) | > 32 | 4 (≈ 3.32 µM) | 32 (≈ 26.6 µM) | > 32 | > 32 | 16 (≈ 13.3 µM) | > 32 | > 32 | > 32 |
| CC[C@H](C)CCCCC(=O)N[C@@H](CCN)C(=O)N[C@H](C(=O)N[C@@H](CCN)C(=O)N[C@H]1CCNC(=O)[C@H](CS)NC(=O)[C@H](CCN)NC(=O)[C@H](CCN)NC(=O)[C@H](CC(C)C)NC(=O)[C@@H](Cc2ccccc2)NC(=O)[C@H](CCN)NC1=O)[C@@H](C)O | 32 (≈ 26.5 µM) | 16 (≈ 13.3 µM) | 4 (≈ 3.32 µM) | 8 (≈ 6.64 µM) | 8 (≈ 6.64 µM) | 16 (≈ 13.3 µM) | 16 (≈ 13.3 µM) | 4 (≈ 3.32 µM) | 16 (≈ 13.3 µM) | 16 (≈ 13.3 µM) | 4 (≈ 3.32 µM) | 16 (≈ 13.3 µM) | 16 (≈ 13.3 µM) | 8 (≈ 6.64 µM) | 4 (≈ 3.32 µM) | 16 (≈ 13.3 µM) | 16 (≈ 13.3 µM) |
| CC[C@H](C)CCCCC(=O)N[C@@H](CCN)C(=O)N[C@H](C(=O)N[C@@H](CCN)C(=O)N[C@H]1CCNC(=O)[C@H]([C@@H](C)OC)NC(=O)[C@H](CCN)NC(=O)[C@H](CCN)NC(=O)[C@H](CC(C)C)NC(=O)[C@@H](Cc2ccccc2)NC(=O)[C@H](CCN)NC1=O)[C@@H](C)O | 8 (≈ 6.57 µM) | 16 (≈ 13.1 µM) | 1 (≈ 0.821 µM) | 16 (≈ 13.1 µM) | 8 (≈ 6.57 µM) | 4 (≈ 3.29 µM) | 32 (≈ 26.3 µM) | 1 (≈ 0.821 µM) | 8 (≈ 6.57 µM) | 8 (≈ 6.57 µM) | 1 (≈ 0.821 µM) | 8 (≈ 6.57 µM) | 2 (≈ 1.64 µM) | 2 (≈ 1.64 µM) | 8 (≈ 6.57 µM) | 8 (≈ 6.57 µM) | 4 (≈ 3.29 µM) |
| CC[C@H](C)CCCCC(=O)N[C@@H](CCN)C(=O)N[C@H](C(=O)N[C@@H](CCN)C(=O)N[C@H]1CCNC(=O)[C@H](CCO)NC(=O)[C@H](CCN)NC(=O)[C@H](CCN)NC(=O)[C@H](CC(C)C)NC(=O)[C@@H](Cc2ccccc2)NC(=O)[C@H](CCN)NC1=O)[C@@H](C)O | 32 (≈ 26.6 µM) | > 32 | 0.5 (≈ 0.415 µM) | 8 (≈ 6.65 µM) | 32 (≈ 26.6 µM) | 2 (≈ 1.66 µM) | > 32 | 0.5 (≈ 0.415 µM) | 8 (≈ 6.65 µM) | 2 (≈ 1.66 µM) | 4 (≈ 3.32 µM) | 4 (≈ 3.32 µM) | 2 (≈ 1.66 µM) | 2 (≈ 1.66 µM) | 2 (≈ 1.66 µM) | 2 (≈ 1.66 µM) | 4 (≈ 3.32 µM) |
| CC[C@H](C)CCCCC(=O)N[C@@H](CCN)C(=O)N[C@H](C(=O)N[C@@H](CCN)C(=O)N[C@H]1CCNC(=O)[C@H](C(C)(C)O)NC(=O)[C@H](CCN)NC(=O)[C@H](CCN)NC(=O)[C@H](CC(C)C)NC(=O)[C@@H](Cc2ccccc2)NC(=O)[C@H](CCN)NC1=O)[C@@H](C)O | 8 (≈ 6.57 µM) | 8 (≈ 6.57 µM) | 1 (≈ 0.821 µM) | 8 (≈ 6.57 µM) | 2 (≈ 1.64 µM) | 4 (≈ 3.29 µM) | 16 (≈ 13.1 µM) | 1 (≈ 0.821 µM) | 16 (≈ 13.1 µM) | 8 (≈ 6.57 µM) | 1 (≈ 0.821 µM) | 1 (≈ 0.821 µM) | 2 (≈ 1.64 µM) | 2 (≈ 1.64 µM) | 1 (≈ 0.821 µM) | 4 (≈ 3.29 µM) | 8 (≈ 6.57 µM) |
| CC[C@H](C)CCCCC(=O)N[C@@H](CCN)C(=O)N[C@H](C(=O)N[C@@H](CCN)C(=O)N[C@H]1CCNC(=O)CNC(=O)[C@H](CCN)NC(=O)[C@H](CCN)NC(=O)[C@H](CC(C)C)NC(=O)[C@@H](Cc2ccccc2)NC(=O)[C@H](CCN)NC1=O)[C@@H](C)O | > 32 | > 32 | 1 (≈ 0.862 µM) | 8 (≈ 6.9 µM) | 1 (≈ 0.862 µM) | 4 (≈ 3.45 µM) | 4 (≈ 3.45 µM) | 0.5 (≈ 0.431 µM) | 4 (≈ 3.45 µM) | 4 (≈ 3.45 µM) | 0.5 (≈ 0.431 µM) | > 32 | 4 (≈ 3.45 µM) | 2 (≈ 1.72 µM) | 0.5 (≈ 0.431 µM) | 8 (≈ 6.9 µM) | 32 (≈ 27.6 µM) |
